In patent publication US9505710B2 (priority 2015, dated 2016):
Counter-ions that a name gives are not always drawn.

Target: BoNT/A LC1-429 (Clostridium botulinum, UniProt P0DPI1)
Experiment: biochemical
Details: BoNT/A Ki (nM)

BoNT/A LC1-429, sequence (P0DPI1 1-429, added parts left off): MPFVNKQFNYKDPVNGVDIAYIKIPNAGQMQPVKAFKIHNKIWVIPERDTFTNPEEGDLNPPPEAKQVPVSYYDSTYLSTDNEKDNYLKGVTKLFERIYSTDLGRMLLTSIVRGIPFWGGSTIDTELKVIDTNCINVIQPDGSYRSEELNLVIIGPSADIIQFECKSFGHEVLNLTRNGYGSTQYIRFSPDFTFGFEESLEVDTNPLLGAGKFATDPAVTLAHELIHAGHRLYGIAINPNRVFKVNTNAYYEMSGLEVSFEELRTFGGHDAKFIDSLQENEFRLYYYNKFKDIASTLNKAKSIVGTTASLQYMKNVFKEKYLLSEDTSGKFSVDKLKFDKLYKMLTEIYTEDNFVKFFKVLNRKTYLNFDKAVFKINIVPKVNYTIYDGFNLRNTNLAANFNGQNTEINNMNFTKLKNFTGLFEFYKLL

SMILES | Ki [nM]
CCO[C@H](CC(=O)NO)[C@H](Cc1ccc(Cl)cc1)c1ccc(-c2cncnc2)cc1 [Example 3-26, (3R,4R)-5-(4-chlorophenyl)-3-ethoxy-N-hydroxy-4-(4-(pyrimidin-5-yl)phenyl)pentanamide] | 3.7
CCO[C@H](CC(=O)NO)[C@H](Cc1ccc(Cl)cc1)c1ccc(-c2cnc(N(C)C)nc2)cc1 [Example 3-27, (3R,4R)-5-(4-chlorophenyl)-4-(4-(2-(dimethylamino)pyrimidin-5-yl)phenyl)-3-ethoxy-N-hydroxypentanamide] | 5.3
CCO[C@H](CC(=O)NO)[C@H](Cc1ccc(Cl)cc1)c1ccc(-c2c(C)nn(C)c2C)cc1 [Example 3-28, (3R,4R)-5-(4-chlorophenyl)-3-ethoxy-N-hydroxy-4-(4-(1,3,5-trimethyl-1H-pyrazol-4-yl)phenyl)pentanamide] | 3.7
CCO[C@H](CC(=O)NO)[C@H](Cc1ccc(Cl)cc1)c1ccc(-n2ccnc2)cc1 [Example 3-29, (3R,4R)-4-(4-(1H-imidazol-1-yl)phenyl)-5-(4-chlorophenyl)-3-ethoxy-N-hydroxypentanamide] | 3.6
CCO[C@H](CC(=O)NO)[C@H](Cc1ccc(Cl)cc1)c1ccc(-c2ccncc2)cc1 [Example 3-30, (3R,4R)-5-(4-chlorophenyl)-3-ethoxy-N-hydroxy-4-(4-(pyridin-4-yl)phenyl)pentanamide] | 4.5
CCO[C@H](CC(=O)NO)[C@H](Cc1ccc(Cl)cc1)c1ccc(C(=O)NO)cc1 [Example 4-1, 4-((2R,3R)-1-(4-chlorophenyl)-3-ethoxy-5-(hydroxyamino)-5-oxopentan-2-yl)-N-hydroxybenzamide] | 10.5
CCCN(CCC)C(=O)c1ccc([C@@H](Cc2ccc(Cl)cc2)[C@@H](CC(=O)NO)OCC)cc1 [Example 4-2, 4-((2R,3R)-1-(4-chlorophenyl)-3-ethoxy-5-(hydroxyamino)-5-oxopentan-2-yl)-N,N-dipropylbenzamide] | 3.9
CCO[C@H](CC(=O)NO)[C@H](Cc1ccc(Cl)cc1)c1ccc(C(=O)N2CCCCC2)cc1 [Example 4-3, (3R,4R)-5-(4-chlorophenyl)-3-ethoxy-N-hydroxy-4-(4-(piperidine-1-carbonyl)phenyl)pentanamide] | 4.3 ± 2
CCO[C@H](CC(=O)NO)[C@H](Cc1ccc(Cl)cc1)c1ccc(C(=O)N(C)CCO)cc1 [Example 4-4, 4-((2R,3R)-1-(4-chlorophenyl)-3-ethoxy-5-(hydroxyamino)-5-oxopentan-2-yl)-N-(2-hydroxyethyl)-N-methylbenzamide] | 9.8 ± 3.7
CCO[C@H](CC(=O)NO)[C@H](Cc1ccc(Cl)cc1)c1ccc(C(=O)N2CCOCC2)cc1 [Example 4-5, (3R,4R)-5-(4-chlorophenyl)-3-ethoxy-N-hydroxy-4-(4-(morpholine-4-carbonyl)phenyl)pentanamide] | 5.8 ± 1.1
CO[C@H](CC(=O)NO)[C@H](Cc1ccc(Cl)cc1)c1ccc(C(=O)N2CCOCC2)cc1 [Example 4-6, (3R,4R)-5-(4-chlorophenyl)-N-hydroxy-3-methoxy-4-(4-(morpholine-4-carbonyl)phenyl)pentanamide] | 11.4
CO[C@H](CC(=O)NO)[C@H](Cc1ccc(Cl)cc1)c1ccc(C(=O)N2CCCCC2)cc1 [Example 4-7, (3R,4R)-5-(4-chlorophenyl)-N-hydroxy-3-methoxy-4-(4-(piperidine-1-carbonyl)phenyl)pentanamide] | 5.5
CCO[C@H](CC(=O)NO)[C@H](Cc1ccc(Cl)cc1)c1ccc(C(=O)N2CCN(C(=O)OC(C)(C)C)CC2)cc1 [Example 4-8, tert-butyl 4-(4-((2R,3R)-1-(4-chlorophenyl)-3-ethoxy-5-(hydroxyamino)-5-oxopentan-2-yl)benzoyl)piperazine-1-carboxylate] | 22
CCO[C@H](CC(=O)NO)[C@H](Cc1ccc(Cl)cc1)c1ccc(C(=O)N2CCNCC2)cc1 [Example 4-9, (3R,4R)-5-(4-chlorophenyl)-3-ethoxy-N-hydroxy-4-(4-(piperazine-1-carbonyl)phenyl)pentanamide] | 9.2 ± 6.1
CCO[C@H](CC(=O)NO)[C@H](Cc1ccc(Cl)cc1)c1ccc(C(=O)N(CCO)CCO)cc1 [Example 4-10, 4-((2R,3R)-1-(4-chlorophenyl)-3-ethoxy-5-(hydroxyamino)-5-oxopentan-2-yl)-N,N-bis(2-hydroxyethyl)benzamide] | 16.7
CO[C@H](CC(=O)NO)[C@H](Cc1ccc(Cl)cc1)c1ccc(Cl)c(Br)c1 [Example 5-1, (3R,4R)-4-(3-bromo-4-chlorophenyl)-5-(4-chlorophenyl)-N-hydroxy-3-methoxypentanamide] | 5.2
CO[C@H](CC(=O)NO)[C@H](Cc1ccc(Cl)cc1)c1ccc(Cl)c(CN2CCCCC2)c1 [Example 5-2, (3R,4R)-4-(4-chloro-3-(piperidin-1-ylmethyl)phenyl)-5-(4-chlorophenyl)-N-hydroxy-3-methoxypentanamide] | 3.7
CO[C@H](CC(=O)NO)[C@H](Cc1ccc(Cl)cc1)c1ccc(Cl)c(C(=O)N2CCCCC2)c1 [Example 5-3, (3R,4R)-4-(4-chloro-3-(piperidine-1-carbonyl)phenyl)-5-(4-chlorophenyl)-N-hydroxy-3-methoxypentanamide] | 13.1
CO[C@H](CC(=O)NO)[C@H](Cc1ccc(Cl)cc1)c1ccc(F)cc1F [Example 5-4, (3R,4R)-5-(4-chlorophenyl)-4-(2,4-difluorophenyl)-N-hydroxy-3-methoxypentanamide] | 3.95

SMILES | Ki [nM]
CO[C@H](CC(=O)NO)[C@H](Cc1ccc(Cl)cc1)c1cc(F)c(F)c(F)c1 [Example 5-5, (3R,4R)-5-(4-chlorophenyl)-N-hydroxy-3-methoxy-4-(3,4,5-trifluorophenyl)pentanamide] | 5.36
CO[C@H](CC(=O)NO)[C@H](Cc1ccc(Cl)cc1)c1cc(F)c(F)c(F)c1F [Example 5-6, (3R,4R)-5-(4-chlorophenyl)-N-hydroxy-3-methoxy-4-(2,3,4,5-tetrafluorophenyl)pentanamide] | 4.95
CCO[C@H](CC(=O)NO)[C@H](Cc1ccc(Cl)cc1)c1ccc(Cl)cc1 [Example 6-1, (3R,4R)-4,5-bis(4-chlorophenyl)-3-ethoxy-N-hydroxypentanamide] | 4.9
CO[C@H](CC(=O)NO)[C@H](Cc1ccc(Cl)cc1)c1ccc(F)cc1 [Example 6-2, (3R,4R)-5-(4-chlorophenyl)-4-(4-fluorophenyl)-N-hydroxy-3-methoxypentanamide potassium salt] | 13
CCO[C@H](CC(=O)NO)[C@H](Cc1ccc(Cl)cc1)c1ccc(F)cc1 [Example 6-3, (3R,4R)-5-(4-chlorophenyl)-3-ethoxy-4-(4-fluorophenyl)-N-hydroxypentanamide potassium salt] | 8.9
CO[C@H](CC(=O)NO)[C@H](Cc1ccc(Cl)cc1C)c1ccc(F)cc1 [Example 6-4, (3R,4R)-5-(4-chloro-2-methylphenyl)-4-(4-fluorophenyl)-N-hydroxy-3-methoxypentanamide] | 1.48
CO[C@H](CC(=O)NO)[C@H](Cc1ccc(Cl)cc1C)c1ccc(F)cc1 [Example 6-5, (3R,4R)-5-(4-chloro-2-methylphenyl)-4-(4-fluorophenyl)-N-hydroxy-3-methoxypentanamide potassium salt] | 3.88
CCO[C@H](CC(=O)NO)[C@H](Cc1ccc(Cl)cc1Cl)c1ccc(Br)cc1 [Example 6-6, (3R,4R)-4-(4-bromophenyl)-5-(2,4-dichlorophenyl)-3-ethoxy-N-hydroxypentanamide] | 4.9
CO[C@H](CC(=O)NO)[C@H](Cc1ccc(Cl)cc1)c1ccc(C(=O)N(C)C)cc1 [Example 6-7, 4-((2R,3R)-1-(4-chlorophenyl)-5-(hydroxyamino)-3-methoxy-5-oxopentan-2-yl)-N,N-dimethylbenzamide] | 26.2
CO[C@H](CC(=O)NO)[C@H](Cc1ccc(Cl)cc1C)c1ccc(CN2CCOCC2)cc1F [Example 6-8, (3R,4R)-5-(4-chloro-2-methylphenyl)-4-(2-fluoro-4-(morpholinomethyl)phenyl)-N-hydroxy-3-methoxypentanamide] | 45.8
CCO[C@H](CC(=O)NO)[C@H](Cc1ccc(Cl)cc1)c1ccc(Cl)c(N2CCOCC2)c1 [Example 6-9, (3R,4R)-4-(4-chloro-3-morpholinophenyl)-5-(4-chlorophenyl)-3-ethoxy-N-hydroxypentanamide] | 5.8
CCO[C@H](CC(=O)NO)[C@H](Cc1ccc(Cl)cc1C)c1ccc(F)cc1F [Example 6-10, (3R,4R)-5-(4-chloro-2-methylphenyl)-4-(2,4-difluorophenyl)-3-ethoxy-N-hydroxypentanamide] | 10
CCO[C@H](CC(=O)NO)[C@H](Cc1ccc(Cl)cc1)c1ccc(F)cc1F [Example 6-11, (3R,4R)-5-(4-chlorophenyl)-4-(2,4-difluorophenyl)-3-ethoxy-N-hydroxypentanamide] | 10.3
CO[C@H](CC(=O)NO)[C@H](Cc1ccc(F)cc1F)c1ccc(F)cc1F [Example 6-12, (3R,4R)-4,5-bis(2,4-difluorophenyl)-N-hydroxy-3-methoxypentanamide] | 29.5
O=C(C[C@@H](OCc1ccccc1)[C@H](Cc1ccc(Cl)cc1)c1ccc(F)cc1F)NO [Example 6-13, (3R,4R)-3-(benzyloxy)-5-(4-chlorophenyl)-4-(2,4-difluorophenyl)-N-hydroxypentanamide] | 114
COCCO[C@H](CC(=O)NO)[C@H](Cc1ccc(Cl)cc1)c1ccc(F)cc1F [Example 6-14, (3R,4R)-5-(4-chlorophenyl)-4-(2,4-difluorophenyl)-N-hydroxy-3-(2-methoxyethoxy)pentanamide] | 55.1
CCCCO[C@H](CC(=O)NO)[C@H](Cc1ccc(Cl)cc1)c1ccc(F)cc1F [Example 6-15, (3R,4R)-3-butoxy-5-(4-chlorophenyl)-4-(2,4-difluorophenyl)-N-hydroxypentanamide] | 48.5
CCCO[C@H](CC(=O)NO)[C@H](Cc1ccc(Cl)cc1)c1ccc(F)cc1F [Example 6-16, (3R,4R)-5-(4-chlorophenyl)-4-(2,4-difluorophenyl)-N-hydroxy-3-propoxypentanamide] | 38.5
O=C(C[C@@H](OCC1CC1)[C@H](Cc1ccc(Cl)cc1)c1ccc(F)cc1F)NO [Example 6-17, (3R,4R)-5-(4-chlorophenyl)-3-(cyclopropylmethoxy)-4-(2,4-difluorophenyl)-N-hydroxypentanamide] | 52.4
